According to US20220056019A1, “FARNESOID X RECEPTOR AGONISTS AND USES THEREOF” (Metacrine, Inc., priority 2018, published 2022):

Biological target: T1, hFXR (Homo sapiens, UniProt Q96RI1)
T1 construct: expressed in transfected cells; host or cells: CV-1 cells
T1 sequence (Q96RI1 1-486): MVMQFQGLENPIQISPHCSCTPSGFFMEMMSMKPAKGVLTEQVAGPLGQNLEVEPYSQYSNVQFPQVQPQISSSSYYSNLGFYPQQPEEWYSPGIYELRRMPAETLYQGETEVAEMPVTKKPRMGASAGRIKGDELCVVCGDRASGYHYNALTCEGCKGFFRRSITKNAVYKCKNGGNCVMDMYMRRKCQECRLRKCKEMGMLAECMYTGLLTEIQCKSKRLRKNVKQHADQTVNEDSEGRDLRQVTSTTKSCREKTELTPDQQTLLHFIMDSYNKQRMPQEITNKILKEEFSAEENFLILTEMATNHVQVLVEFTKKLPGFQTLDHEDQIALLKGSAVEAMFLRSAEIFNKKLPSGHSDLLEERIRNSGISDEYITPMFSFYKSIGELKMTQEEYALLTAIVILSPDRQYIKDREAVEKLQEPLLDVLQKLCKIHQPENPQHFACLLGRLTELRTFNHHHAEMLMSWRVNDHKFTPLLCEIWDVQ
T1 sequence (P19793 1-462 partner): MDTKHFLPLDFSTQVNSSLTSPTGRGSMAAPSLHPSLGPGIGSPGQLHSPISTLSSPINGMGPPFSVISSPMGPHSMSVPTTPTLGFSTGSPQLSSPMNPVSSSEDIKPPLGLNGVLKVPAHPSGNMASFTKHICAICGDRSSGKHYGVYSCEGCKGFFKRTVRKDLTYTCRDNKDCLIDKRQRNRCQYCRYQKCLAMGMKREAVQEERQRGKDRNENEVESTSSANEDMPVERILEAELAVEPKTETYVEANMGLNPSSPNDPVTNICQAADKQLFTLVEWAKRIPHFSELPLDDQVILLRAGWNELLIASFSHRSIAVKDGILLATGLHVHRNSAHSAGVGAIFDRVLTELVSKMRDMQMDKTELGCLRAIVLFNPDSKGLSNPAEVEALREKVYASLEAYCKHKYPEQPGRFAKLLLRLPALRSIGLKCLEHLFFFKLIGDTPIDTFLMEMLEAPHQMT
Assay: In Vitro FXR Assay (TK): TK-ECRE-luc reporter in transfected CV-1 cells
Type: cell-based
Settings: 18 hrs incubation, luminescence
In short: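 CV-1 cells in DMEM with 10% charcoal-stripped FBS were transiently co-transfected with hFXR, hRXR, TK-ECRE-luc reporter and pCMX-YFP plasmids over 18 h at 37 °C. Compounds serially diluted in DMSO were added for 18 h; cells were then lysed and luciferase luminescence measured.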

EC50, ≤ 50 nM:
COc1ccc(C23CCC(CN(c4ccc(F)c(-c5cnn(C(C)C)c5)c4)C(=O)[C@H]4CC[C@H](OC(=O)N5CC(CS(C)(=O)=O)C5)CC4)(CC2)CC3)cc1C [Compound 25.10, 4-((4-Fluoro-3-(1-isopropyl-1H-pyrazol-4-yl)phenyl)((4-(4-methoxy-3-methylphenyl)bicyclo[2.2.2]octan-1-yl)methyl)carbamoyl)cyclohexyl trans-3-((methylsulfonyl)methyl)azetidine-1-carboxylate]
COc1ccc(C23CCC(CN(c4ccc(F)c(-c5cnn(C(C)C)c5)c4)C(=O)[C@H]4CC[C@H](OC(=O)N5CC(C#N)C5)CC4)(CC2)CC3)cc1C [Compound 25.11, 4-((4-Fluoro-3-(1-isopropyl-1H-pyrazol-4-yl)phenyl)((4-(4-methoxy-3-methylphenyl)bicyclo[2.2.2]octan-1-yl)methyl)carbamoyl)cyclohexyl trans-3-cyanoazetidine-1-carboxylate]
COc1ccc(C23CCC(CN(c4cc(-c5cnn(C(C)C)c5)c(F)cn4)C(=O)[C@H]4CC[C@H](OC(=O)N5CC(C#N)C5)CC4)(CC2)CC3)cc1C [Compound 25.12, 4-((5-Fluoro-4-(1-isopropyl-1H-pyrazol-4-yl)pyridin-2-yl)((4-(4-methoxy-3-methylphenyl)bicyclo[2.2.2]octan-1-yl)methyl)carbamoyl)cyclohexyl trans-3-cyanoazetidine-1-carboxylate]
COc1ccc(C23CCC(CN(c4ncc(F)c(-c5cnn(C(C)C)c5)c4F)C(=O)[C@H]4CC[C@H](OC(=O)N5CC(O)C5)CC4)(CC2)CC3)cc1C [Compound 25.14, 4-((3,5-Difluoro-4-(1-isopropyl-1H-pyrazol-4-yl)pyridin-2-yl)((4-(4-methoxy-3-methylphenyl)bicyclo[2.2.2]octan-1-yl)methyl)carbamoyl)(trans-cyclohexyl) 3-hydroxyazetidine-1-carboxylate]
COc1ccc(C23CCC(CN(c4ccc(F)c(-c5cnn(C(C)C)c5)c4F)C(=O)[C@H]4CC[C@H](OC(=O)N5CC(O)C5)CC4)(CC2)CC3)cc1C [Compound 25.15, 4-((2,4-Difluoro-3-(1-isopropyl-1H-pyrazol-4-yl)phenyl)((4-(4-methoxy-3-methylphenyl)bicyclo[2.2.2]octan-1-yl)methyl)carbamoyl)cyclohexyl trans-3-hydroxyazetidine-1-carboxylate]
COc1ccc(C23CCC(CN(c4cc(-c5cnn(C6(C)CCC6)c5)ccn4)C(=O)[C@H]4CC[C@H](OC(=O)NCCO)CC4)(CC2)CC3)cc1C [Compound 25.16, 4-(((4-(4-Methoxy-3-methylphenyl)bicyclo[2.2.2]octan-1-yl)methyl)(4-(1-(1-methylcyclobutyl)-1H-pyrazol-4-yl)pyridin-2-yl)carbamoyl)(trans-cyclohexyl)(2-hydroxyethyl)carbamate]
COc1ccc(C23CCC(CN(c4cc(-c5cnn(C6(C)CCC6)c5)ccn4)C(=O)[C@H]4CC[C@H](OC(=O)NCCCO)CC4)(CC2)CC3)cc1C [Compound 25.17, 4-(((4-(4-Methoxy-3-methylphenyl)bicyclo[2.2.2]octan-1-yl)methyl)(4-(1-(1-methylcyclobutyl)-1H-pyrazol-4-yl)pyridin-2-yl)carbamoyl)(trans-cyclohexyl)(3-hydroxypropyl)carbamate]
COc1ccc(C23CCC(CN(c4cc(-c5cnn(C6(C)CCC6)c5)c(F)cn4)C(=O)[C@H]4CC[C@H](OC(=O)N5CC(O)C5)CC4)(CC2)CC3)cc1C [Compound 25.18, 4-((5-Fluoro-4-(1-(1-methylcyclobutyl)-1H-pyrazol-4-yl)pyridin-2-yl)((4-(4-methoxy-3-methylphenyl)bicyclo[2.2.2]octan-1-yl)methyl)carbamoyl)cyclohexyl trans-3-hydroxyazetidine-1-carboxylate]
COc1ccc(C23CCC(CN(c4cc(-c5cnn(C6(C)CCC6)c5)ccn4)C(=O)[C@H]4CC[C@H](OC(=O)N5CC(S(C)(=O)=O)C5)CC4)(CC2)CC3)cc1C [Compound 25.19, 4-(((4-(4-Methoxy-3-methylphenyl)bicyclo[2.2.2]octan-1-yl)methyl)(4-(1-(1-methylcyclobutyl)-1H-pyrazol-4-yl)pyridin-2-yl)carbamoyl)(trans-cyclohexyl) 3-(methylsulfonyl)azetidine-1-carboxylate]
COc1ccc(C23CCC(CN(c4cc(-c5cnn(C6(C)CCC6)c5)ccn4)C(=O)[C@H]4CC[C@H](OC(=O)N5CC(CS(C)(=O)=O)C5)CC4)(CC2)CC3)cc1C [Compound 25.20, 4-(((4-(4-Methoxy-3-methylphenyl)bicyclo[2.2.2]octan-1-yl)methyl)(4-(1-(1-methylcyclobutyl)-1H-pyrazol-4-yl)pyridin-2-yl)carbamoyl)(trans-cyclohexyl) 3-((methysulfonyl)methyl)azetidine-1-carboxylate]
COc1ccc(C23CCC(CN(c4cc(-c5cnn(C6(C)CCC6)c5)ccn4)C(=O)[C@H]4CC[C@H](OC(=O)N5CC(CO)C5)CC4)(CC2)CC3)cc1C [Compound 25.21, 4-(((4-(4-Methoxy-3-methylphenyl)bicyclo[2.2.2]octan-1-yl)methyl)(4-(1-(1-methylcyclobutyl)-1H-pyrazol-4-yl)pyridin-2-yl)carbamoyl)(trans-cyclohexyl) 3-(hydroxymethyl)azetidine-1-carboxylate]
COc1ccc(C23CCC(CN(c4cncc(-c5cnn(C6(C)CCC6)c5)c4)C(=O)[C@H]4CC[C@H](OC(=O)N5CC(O)C5)CC4)(CC2)CC3)cc1C [Compound 25.22, 4-(((4-(4-Methoxy-3-methylphenyl)bicyclo[2.2.2]octan-1-yl)methyl)(5-(1-(1-methylcyclobutyl)-1H-pyrazol-4-yl)pyridin-3-yl)carbamoyl)cyclohexyl trans-3-hydroxyazetidine-1-carboxylate]
COc1ccc(C23CCC(CN(c4ccnc(-c5cnn(C6(C)CCC6)c5)c4)C(=O)[C@H]4CC[C@H](OC(=O)N5CC(O)C5)CC4)(CC2)CC3)cc1C [Compound 25.23, 4-(((4-(4-Methoxy-3-methylphenyl)bicyclo[2.2.2]octan-1-yl)methyl)(2-(1-(1-methylcyclobutyl)-1H-pyrazol-4-yl)pyridin-4-yl)carbamoyl)cyclohexyl trans-3-hydroxyazetidine-1-carboxylate]
COc1ccc(C23CCC(CN(c4cccc(-c5cnn(C6(C)CCC6)c5)n4)C(=O)[C@H]4CC[C@H](OC(=O)N5CC(O)C5)CC4)(CC2)CC3)cc1C [Compound 25.24, 4-(((4-(4-Methoxy-3-methylphenyl)bicyclo[2.2.2]octan-1-yl)methyl)(6-(1-(1-methylcyclobutyl)-1H-pyrazol-4-y)pyridin-2-yl)carbamoyl)cyclohexyl trans-3-hydroxyazetidine-1-carboxylate]
COc1ccc(C23CCC(CN(c4nccc(-c5cnn(C6(C)CCC6)c5)n4)C(=O)[C@H]4CC[C@H](OC(=O)N5CC(O)C5)CC4)(CC2)CC3)cc1C [Compound 25.25, 4-(((4-(4-Methoxy-3-methylphenyl)bicyclo[2.2.2]octan-1-yl)methyl)(4-(1-(1-methylcyclobutyl)-1H-pyrazol-4-yl)pyrimidin-2-yl)carbamoyl)cyclohexyl trans-3-hydroxyazetidine-1-carboxylate]
COc1ccc(C23CCC(CN(c4cc(-c5cnn(C6(C)CCC6)c5)ncn4)C(=O)[C@H]4CC[C@H](OC(=O)N5CC(O)C5)CC4)(CC2)CC3)cc1C [Compound 25.26, 4-(((4-(4-Methoxy-3-methylphenyl)bicyclo[2.2.2]octan-1-yl)methyl)(6-(1-(1-methylcyclobutyl)-1H-pyrazol-4-yl)pyrimidin-4-yl)carbamoyl)cyclohexyl trans-3-hydroxyazetidine-1-carboxylate]
COc1ccc(C23CCC(CN(c4cncc(-c5cnn(C6(C)CCC6)c5)n4)C(=O)[C@H]4CC[C@H](OC(=O)N5CC(O)C5)CC4)(CC2)CC3)cc1C [Compound 25.27, 4-(((4-(4-Methoxy-3-methylphenyl)bicyclo[2.2.2]octan-1-yl)methyl)(6-(1-(1-methylcyclobutyl)-1H-pyrazol-4-yl)pyrazin-2-yl)carbamoyl)cyclohexyl trans-3-hydroxyazetidine-1-carboxylate]
